The values below come from publication PMC9504244, “Lysophosphatidylinositol Induced Morphological Changes and Stress Fiber Formation through the GPR55-RhoA-ROCK Pathway” (International Journal of Molecular Sciences, 2022).

In the assay the target is GPR55 (Homo sapiens, UniProt Q9Y2T6). Kind of assay: cell rounding, dose response, GPR55-expressing vs empty-vector HEK293 cells. Format: cell-based.
GPR55, sequence (Q9Y2T6 whole entry): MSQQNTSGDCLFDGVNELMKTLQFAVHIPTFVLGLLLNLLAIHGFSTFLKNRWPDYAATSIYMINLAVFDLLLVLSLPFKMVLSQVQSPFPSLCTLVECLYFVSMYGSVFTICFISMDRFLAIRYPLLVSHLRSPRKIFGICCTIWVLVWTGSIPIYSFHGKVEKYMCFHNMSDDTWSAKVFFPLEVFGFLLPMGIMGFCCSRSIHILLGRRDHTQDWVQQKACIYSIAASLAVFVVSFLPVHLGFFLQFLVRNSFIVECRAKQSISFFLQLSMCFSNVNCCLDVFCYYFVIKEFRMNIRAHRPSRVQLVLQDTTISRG

Regarding `Cc1c(C(=O)NN2CCCCC2)nn(-c2ccc(Cl)cc2Cl)c1-c1ccc(Cl)cc1` [SR141716A], the “cell rounding, dose response, GPR55-expressing vs empty-vector HEK293 cells” value is “cell rounding induced by AM251 and SR141716A was not observed in empty vector-transfected cells”.
